Source: patent US20250261636A1, “QUATERNARY AMMONIUM SANITIZING COMPOSITION” (ECOLAB USA INC., priority 2020, published 2025)
Several values for one entry are separate records, joined by “and”; a condition that tells them apart may be missing. Equal values may be shown once.

Legend:
[1] = tested on: Staphylococcus aureus ATCC 6538; assay: AOAC Method 960.09 Germicidal and Detergent Sanitizing Action of Disinfectants, food contact sanitizing suspension test; type: cell-based; details: for Average Log Reduction / CFU - Dilution 1E−01 / CFU - Dilution 1E−02 / CFU/mL / Log / Log Reduction: 50 ppm; for Average Log Reduction / CFU - Dilution 1E−01 / CFU - Dilution 1E−02 / CFU/mL / Log: Example 4; for Log Reduction: Example 4, per replicate
Protocol: (§1) The microbial efficacy of the multipurpose sanitizing composition was evaluated for food contact applications. The purpose of the testing is to determine the efficacy of compositions used for sanitizing food contact surfaces, which in the evaluations were pre-cleaned, non-porous surfaces using AOAC Method 960.09 Germicidal and Detergent Sanitizing Action of Disinfectants. […] The test organisms included Staphylococcus aureus ATCC 6538 and Escherichia coli ATCC 11229.
(§2) The pH was adjusted by use of a polycarboxylic acid (unless otherwise noted, such as the polycarboxylate citrate tested at pH 8). In this screening test pH 9, 8, 7, 5, 4, and 3 were tested. “NT” indicates a condition was “Not Tested.”

[2] = tested on: Escherichia coli ATCC 11229; assay: as above; type: cell-based
Protocol: as §1, §2

[3] = pH 7.5-8 (no pH adjustment), 77° F.
[4] = 50 ppm, pH 4, 77° F., Example 4
[5] = 50 ppm, pH 5, 77° F., Example 4
[6] = 50 ppm, pH 6, 77° F., Example 4
[7] = 50 ppm, pH 7, 77° F., Example 3
[8] = 50 ppm, pH 7 as printed (second sample of Table 15), 77° F.
[9] = 50 ppm, pH 7.5-8 (no pH adjustment), 77° F., Example 4
[10] = 30 ppm, pH 5, 120° F., listed as Stepan Quat

didecyl dimethyl ammonium carbonate/bicarbonate [CarboQuat]
log reduction S. aureus (ATCC 6538) ([1]; 20 ppm, pH 5, 120° F.): 6.88 log
log reduction S. aureus (ATCC 6538) ([1]; 30 ppm, pH 5, 120° F.): 6.69 log and 6.88 log
log reduction S. aureus (ATCC 6538) ([1]; 30 ppm, pH 8, 120° F.): 6.69 log
log reduction S. aureus (ATCC 6538) ([1]; 40 ppm, pH 8, 120° F.): 6.69 log
Average Log Reduction ([1]; pH 4, 77° F.): 6.89 log
CFU - Dilution 1E−01 ([1]; pH 4, 77° F.): 0 CFU
CFU - Dilution 1E−02 ([1]; pH 4, 77° F.): 0 CFU
CFU/mL ([1]; pH 4, 77° F.): 1.0E+01 CFU/mL
Log ([1]; pH 4, 77° F.): 1.00
Log Reduction ([1]; pH 4, 77° F.): 6.89 log
Average Log Reduction ([1]; pH 5, 77° F.): 6.89 log
CFU - Dilution 1E−01 ([1]; pH 5, 77° F.): 0 CFU
CFU - Dilution 1E−02 ([1]; pH 5, 77° F.): 0 CFU
CFU/mL ([1]; pH 5, 77° F.): 1.0E+01 CFU/mL
Log ([1]; pH 5, 77° F.): 1.00
Log Reduction ([1]; pH 5, 77° F.): 6.89 log
Average Log Reduction ([1]; pH 6, 77° F.): 6.89 log
CFU - Dilution 1E−01 ([1]; pH 6, 77° F.): 0 CFU
CFU/mL ([1]; pH 6, 77° F.): 1.0E+01 CFU/mL
Log ([1]; pH 6, 77° F.): 1.00
Log Reduction ([1]; pH 6, 77° F.): 6.89 log
Average Log Reduction [1, 3]: 6.89 log
CFU - Dilution 1E−01 [1, 3]: 0 CFU
CFU - Dilution 1E−02 [1, 3]: 0 CFU
CFU/mL [1, 3]: 1.0E+01 CFU/mL
Log [1, 3]: 1.00
Log Reduction [1, 3]: 6.89 log
log reduction E. coli (ATCC 11229) ([2]; 20 ppm, pH 5, 120° F.): 5.08 log
log reduction E. coli (ATCC 11229) ([2]; 30 ppm, pH 3, 120° F.): 6.25 log
log reduction E. coli (ATCC 11229) ([2]; 30 ppm, pH 4, 120° F.): 6.88 log
Average Log Reduction ([2]; 30 ppm, pH 5, 104° F.): 5.61 log
CFU - Dilution 1E−01 ([2]; 30 ppm, pH 5, 104° F.): 14 CFU and 28 CFU
CFU - Dilution 1E−02 ([2]; 30 ppm, pH 5, 104° F.): 3 CFU and 6 CFU
Log Reduction ([2]; 30 ppm, pH 5, 104° F., per replicate): 5.76 log and 5.46 log
log reduction E. coli (ATCC 11229) ([2]; 30 ppm, pH 5, citric acid, 120° F.): 6.67 log
log reduction E. coli (ATCC 11229) ([2]; 30 ppm, pH 5, formic acid, 120° F.): 6.67 log
Average Log Reduction ([2]; 30 ppm, pH 7, 104° F.): 3.47 log
CFU - Dilution 1E−01 ([2]; 30 ppm, pH 7, 104° F.): TNTC
CFU - Dilution 1E−02 ([2]; 30 ppm, pH 7, 104° F.): TNTC
CFU/mL ([2]; 30 ppm, pH 7, 104° F.): 3.00E+04 CFU/mL
Log ([2]; 30 ppm, pH 7, 104° F.): 4.48
Log Reduction ([2]; 30 ppm, pH 7, 104° F., per replicate): 3.47 log
Average Log Reduction ([2]; 30 ppm, pH 7, 120° F.): 6.68 log
CFU - Dilution 1E−01 ([2]; 30 ppm, pH 7, 120° F.): 0 CFU
CFU - Dilution 1E−02 ([2]; 30 ppm, pH 7, 120° F.): 0 CFU
CFU/mL ([2]; 30 ppm, pH 7, 120° F.): 1E+01 CFU/mL
Log ([2]; 30 ppm, pH 7, 120° F.): 1.00
Log Reduction ([2]; 30 ppm, pH 7, 120° F., per replicate): 6.68 log
Average Log Reduction ([2]; 30 ppm, pH 8, 120° F.): 3.21 log
CFU - Dilution 1E−01 ([2]; 30 ppm, pH 8, 120° F.): TNTC
CFU - Dilution 1E−02 ([2]; 30 ppm, pH 8, 120° F.): TNTC
CFU/mL ([2]; 30 ppm, pH 8, 120° F.): 3.00E+04 CFU/mL
Log ([2]; 30 ppm, pH 8, 120° F.): 4.48
Log Reduction ([2]; 30 ppm, pH 8, 120° F., per replicate): 3.21 log
log reduction E. coli (ATCC 11229) ([2]; 30 ppm, pH 8, citrate, 120° F.): 3.20 log
Average Log Reduction ([2]; 40 ppm, pH 8, 120° F.): 5.70 log
Log Reduction ([2]; 40 ppm, pH 8, 120° F., per replicate): 5.28 log and 6.12 log
Average Log Reduction [2, 4]: 5.22 log
CFU - Dilution 1E−01 [2, 4]: 44 CFU
CFU - Dilution 1E−02 [2, 4]: 7 CFU and 4 CFU
CFU/mL [2, 4]: 4.6E+02 CFU/mL and 4.4E+02 CFU/mL
Log [2, 4]: 2.67 and 2.64
Log Reduction ([2]; 50 ppm, pH 4, 77° F., Example 4, per replicate): 5.21 log and 5.23 log
log reduction E. coli (ATCC 11229) ([2]; 50 ppm, pH 5, 77° F., Example 3): 6.70 log
Average Log Reduction [2, 5]: 6.87 log
CFU - Dilution 1E−01 [2, 5]: 0 CFU
CFU - Dilution 1E−02 [2, 5]: 0 CFU
CFU/mL [2, 5]: 1.0E+01 CFU/mL
Log [2, 5]: 1.00
Log Reduction ([2]; 50 ppm, pH 5, 77° F., Example 4, per replicate): 6.87 log
log reduction E. coli (ATCC 11229) ([2]; 50 ppm, pH 5, 104° F.): 6.95 log
Average Log Reduction [2, 6]: 4.07 log
CFU - Dilution 1E−01 [2, 6]: TNTC
CFU - Dilution 1E−02 [2, 6]: 84 CFU and 48 CFU
CFU/mL [2, 6]: 8.4E+03 CFU/mL and 4.8E+03 CFU/mL
Log [2, 6]: 3.92 and 3.68
Log Reduction ([2]; 50 ppm, pH 6, 77° F., Example 4, per replicate): 3.95 log and 4.19 log
Average Log Reduction [2, 7]: 3.35 log
CFU - Dilution 1E−01 [2, 7]: TNTC
CFU - Dilution 1E−02 [2, 7]: TNTC
CFU/mL [2, 7]: 3.00E+04 CFU/mL
Log [2, 7]: 4.48
Log Reduction ([2]; 50 ppm, pH 7, 77° F., Example 3, per replicate): 3.35 log
log reduction E. coli (ATCC 11229) ([2]; 50 ppm, pH 7, 104° F.): 6.71 log
Average Log Reduction [2, 8]: 6.70 log
CFU - Dilution 1E−01 [2, 8]: 2 CFU and 1 CFU
CFU - Dilution 1E−02 [2, 8]: 0 CFU
CFU/mL [2, 8]: 2E+01 CFU/mL and 1E+01 CFU/mL
Log [2, 8]: 1.26 and 1.00
Log Reduction ([2]; 50 ppm, pH 7 as printed (second sample of Table 15), 77° F., per replicate): 6.57 log and 6.83 log
Average Log Reduction [2, 9]: 3.40 log
CFU - Dilution 1E−01 [2, 9]: TNTC
CFU - Dilution 1E−02 [2, 9]: TNTC
CFU/mL [2, 9]: 3.0E+04 CFU/mL
Log [2, 9]: 4.48
Log Reduction ([2]; 50 ppm, pH 7.5-8 (no pH adjustment), 77° F., Example 4, per replicate): 3.40 log
log reduction E. coli (ATCC 11229) ([2]; 50 ppm, pH 9, 77° F., Example 3): 3.35 log
log reduction E. coli (ATCC 11229) ([2]; 50 ppm, pH 9, 104° F.): 5.33 log
log reduction E. coli (ATCC 11229) ([2]; 75 ppm, pH 5, 77° F., Example 3): 6.83 log
log reduction E. coli (ATCC 11229) ([2]; 75 ppm, pH 5, 104° F.): 6.95 log
log reduction E. coli (ATCC 11229) ([2]; 75 ppm, pH 7, 77° F., Example 3): 6.83 log
log reduction E. coli (ATCC 11229) ([2]; 75 ppm, pH 7, 104° F.): 6.95 log
log reduction E. coli (ATCC 11229) ([2]; 75 ppm, pH 9, 77° F., Example 3): 6.50 log
log reduction E. coli (ATCC 11229) ([2]; 75 ppm, pH 9, 104° F.): 6.95 log
log reduction E. coli (ATCC 11229) ([2]; 100 ppm, pH 5, 77° F., Example 3): 6.83 log
log reduction E. coli (ATCC 11229) ([2]; 100 ppm, pH 9, 77° F., Example 3): 6.83 log

didecyl dimethyl ammonium methyl sulfonate/sulfate [Quat]
log reduction S. aureus (ATCC 6538) ([1]; 30 ppm, pH 5, 120° F.): 6.69 log
Average Log Reduction ([2]; 30 ppm, pH 5, 120° F.): 4.93 log
Log Reduction ([2]; 30 ppm, pH 5, 120° F., per replicate, listed as Stepan Quat): 4.85 log and 5.02 log
CFU - Dilution 1E−01 [2, 10]: 63 CFU and 46 CFU
CFU/mL [2, 10]: 6.8E+02 CFU/mL and 4.6E+02 CFU/mL
Log [2, 10]: 2.83 and 2.67
